In assay [1] the target is T1, SIK1 (Homo sapiens, UniProt P57059).
T1 construct: purchased Carna Biosciences 02-131
In words: 33P radioactive kinase assay, SIK1. The format is biochemical. Here is the method: (§1) The principle of the ^33P radioactive kinase assay consists in measuring the incorporated ^33P into the substrate AMARA peptide when phosphorylated by SIK1, SIK2 or SIK3 using [^33P]-g-ATP, which correlates with kinase activity.
(§2) The test compounds are prepared as a serial dilution of 10 point dose responses with 1/5 dilution steps in 100% DMSO starting from 2 mM highest concentration, diluted 1/20 in water and 5 μL is transferred to the assay plates (Greiner, Cat #651201).
(§3) 1% DMSO and 10 μM staurosporine final concentrations are used as negative and positive controls.
(§4) 11 μL of enzyme-substrate mixture is added on the assay plates. The reactions are started by adding 9 μL ATP mixture, consisting of non-labeled and ^33P-labeled ATP, on the assay plates.
(§5) The reactions are stopped by adding 25 μL phosphoric acid (150 mM) to the reactions.
(§6) The completely terminated kinase reactions are transferred using a harvester on pre-wetted UniFilter-96 plates (UniFilter-96 GF/B, PerkinElmer Inc., Cat #6005177).
(§7) After harvesting the kinase reactions, the filter plates are washed 6 times with phosphoric acid (75 mM). The back of the UniFilter-96 plates are sealed and 40 μL MicroScint-20 (PerkinElmer Inc., Cat #6013621) is added to each well. The top of the plates are sealed with TopSeal-A. Read-out is performed with a TopCount instrument (PerkinElmer Inc.).
(§8) Raw data are generated following the read-out performed on the TopCount, plotted to generate dose response curves to calculate percentage inhibition (PIN) and average IC50 for each SIK homologue which are reported in the table below.

The target in assay [2] is T2, SIK2 (Homo sapiens, UniProt Q9H0K1).
T2 construct: purchased ThermoFisher Scientific PV4792
T2 sequence (Q9H0K1 whole entry): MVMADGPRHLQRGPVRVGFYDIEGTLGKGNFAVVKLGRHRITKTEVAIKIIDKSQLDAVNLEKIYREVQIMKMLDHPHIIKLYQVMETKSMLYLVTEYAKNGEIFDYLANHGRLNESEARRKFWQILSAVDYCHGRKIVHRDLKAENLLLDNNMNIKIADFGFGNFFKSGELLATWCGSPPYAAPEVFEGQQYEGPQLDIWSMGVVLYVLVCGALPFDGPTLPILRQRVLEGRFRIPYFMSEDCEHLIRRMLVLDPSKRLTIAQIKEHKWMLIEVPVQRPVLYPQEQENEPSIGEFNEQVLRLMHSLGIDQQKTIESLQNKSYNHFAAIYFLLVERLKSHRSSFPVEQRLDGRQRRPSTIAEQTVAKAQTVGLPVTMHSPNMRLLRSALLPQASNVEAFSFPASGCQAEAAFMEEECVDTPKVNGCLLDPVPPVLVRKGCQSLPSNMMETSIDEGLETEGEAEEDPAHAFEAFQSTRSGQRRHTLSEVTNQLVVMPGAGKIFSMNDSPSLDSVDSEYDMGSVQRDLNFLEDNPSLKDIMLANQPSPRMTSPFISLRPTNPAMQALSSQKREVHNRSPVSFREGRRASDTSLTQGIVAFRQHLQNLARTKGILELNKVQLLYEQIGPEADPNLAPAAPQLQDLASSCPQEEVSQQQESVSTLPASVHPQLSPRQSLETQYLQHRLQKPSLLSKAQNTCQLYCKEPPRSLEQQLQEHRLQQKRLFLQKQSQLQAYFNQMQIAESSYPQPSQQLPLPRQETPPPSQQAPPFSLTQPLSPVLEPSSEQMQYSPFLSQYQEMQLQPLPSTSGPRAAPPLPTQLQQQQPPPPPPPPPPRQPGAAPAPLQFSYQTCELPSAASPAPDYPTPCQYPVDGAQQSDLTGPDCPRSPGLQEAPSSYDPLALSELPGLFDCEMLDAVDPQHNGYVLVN
The assay can be described thus: 33P radioactive kinase assay, SIK2. Further: AMARA 5 µM, 10 µM ATP. The format is biochemical. The protocol: as §1, §2, §3, §4, §5, §6, §7, §8

Assay [3] has as its target T3, SIK3 (Homo sapiens, UniProt Q9Y2K2).
T3 construct: purchased SignalChem S12-11G-100
The assay can be described thus: 33P radioactive kinase assay, SIK3. The format is biochemical. The conditions noted are these: 33P radioactive assay; AMARA 7 μM; 15 μM ATP; 80 min; average IC50. Here is the method:
as §1, §2, §3, §4, §5, §6, §7, §8

Assay [4] has as its system LPS-induced TNFα in monocyte-derived macrophages. The assay can be described thus: MdM assay: LPS-triggered TNFα (ELISA). It counts as cell-based, human. To be noted: Macrophage; human MdM; LPS 200 ng/mL; supernatant after 20 h; inhibition of TNFα; read-out: TNFα EC50. Here is the method:
This assay evaluates illustrative compounds of the invention for their inhibition of LPS-induced TNFα and LPS triggered IL-10 secretion in monocyte-derived macrophages. PBMCs are isolated from human blood samples (buffycoats). The buffy coat is aseptically transferred into a 50 mL Falcon tube, and diluted 1/2 in PBS. Falcon tubes are filled with 20 mL LymphoprepTM, on top of which 25 mL of the buffy coat is carefully added, tubes are centrifuged for 35 min at 400 g in temperature controlled centrifuge, without brake, at 25° C. PBMCs are aspirated from the white interface layer between sample and LymphoprepTM. PBMCs are washed five times in PBS. […] PBMCs are centrifuged at 300×g for 10 min and resuspended at a density of 1.0*10^7 cells/80 μL Miltenyi buffer (PBS, pH 7.4, 1% FBS, 2 mM EDTA). Starting from this point of the protocol all steps are performed on ice. 20 μL of CD14+ micro-beads are added per 1.0*10^7 cells, the tube is mixed and incubated for 15 min in the fridge at 4° C. Cell suspension volume is adjusted to total volume of 100 mL using Miltenyi buffer, mixed gently and subsequently centrifuged for 10 min at 300×g. Supernatant is discarded and cell pellet is resuspended in 12 mL of Miltenyi buffer. Four LS columns are placed in the MACS Separator (magnet) from Miltenyi Biotec, and are prewet by rinsing with 3 mL of MACS buffer per column. Three mL of cell suspension is added onto the column (max 1*10^8 of labelled cells/column), and columns are subsequently washed 3 times with 3 mL of Miltenyi buffer. The columns are removed from the magnets, and 5 mL of Miltenyi buffer are added to the column to flush out the CD14+ fraction by pushing the plunger into the column. The flushed fractions are collected in a fresh 50 mL Falcon and volume is adjusted to 30 mL using Miltenyi buffer, cells are centrifuged for 10 min at 300×g. The obtained cell pellet is resuspended in 10 mL RPMI w/o FBS, and cell density is determined using a hematologic analyser (Sysmex XS-500i). […] On day 10, MdMs are triggered and compound is added. A compound dilution plate is made in 100% DMSO by 3-fold dilution of 10 mM stock solution. An intermediate dilution plate (10× final concentration) is made by diluting the compound dilution plate […] in RPMI medium. Medium is carefully removed from cell plates using multichannel pipette, and replaced by 80 μL fresh medium. 10 μL of the 10× final concentration compound is added to the cells and incubated for 1 hour at 37° C. before addition of trigger. No trigger conditions/trigger conditions are spiked with equal final DMSO concentrations of 0.2% DMSO. 10 μL of 10×LPS (final conc. 200 ng/mL) solution are added to all wells except for the 'no trigger wells' where 10 μL medium is added. Supernatant is collected after 2 h (IL-10 determination) and after 20 h (TNFα determination) of LPS triggering. […] The plate is then washed once with PBST (PBS+0.05% Tween20) and once with PBS followed by the addition of 100 μL of blocking buffer (1% Bovine Serum Albumin (BSA) -5% Sucrose) and plates are sealed and incubated for at least 4 h at RT. After washing the plate once with PBST and once with PBS, 40 μL of standard or sample are added (TNFα standard curve is prepared using a 1/2 serial dilution starting from 16000 pg/mL; dilutions are made in dilution buffer (PBS+1% BSA)). Plates are washed twice with PBST, and once with PBS, after which 35 μL of the detection antibody is added (final concentration 0.25 μg/mL diluted in dilution buffer) and plates are incubated for at least 2 h at RT. Plates are washed twice with PBST, and once with PBS, where after 35 μL of Strep-HRP conjugate (0.5 μg/mL final concentration diluted in dilution buffer) is added. […] Plates are washed twice with PBST, and once with PBS. Thereafter, 50 μL of luminol substrate is added to each well (prepared according to manufacturer's instructions), and incubated for 5 min at RT protected from light.
Background: ELISA stands for enzyme-linked immunosorbent assay.

Assay [5] concerns the target T1, SIK1. The assay can be described thus: ADP-Glo kinase assay, SIK1. It counts as biochemical. Summed up:
(§9)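 Kinase reactions ran 120 min at room temperature after ATP addition to enzyme-substrate mix. Remaining ATP was depleted (40 min) and ADP converted to ATP for luciferase detection (30 min), signal rising with activity. Final 1% DMSO and 10 μM staurosporine served as negative and positive controls.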
(In general: In ADP-Glo the light output rises with the ADP produced.)

Assay [6] has as its target T2, SIK2. In words: ADP-Glo kinase assay, SIK2. It counts as biochemical. The gist of the method:
as §9

The target in assay [7] is T3, SIK3. The assay can be described thus: ADP-Glo kinase assay, SIK3. It counts as biochemical. Summed up:
as §9

The values below come from US12391679B2, “Benzamide-substituted bicyclic imidazo- and pyrazolo-fused -pyridine, -pyrimide, and -pyridazine compounds for treatment of inflammatory diseases” (ONCO3R Therapeutics BV, priority 2019, dated 2025).

Each structure is given as a SMILES string.

T3 sequence (Q9Y2K2 59-365 limits assumed): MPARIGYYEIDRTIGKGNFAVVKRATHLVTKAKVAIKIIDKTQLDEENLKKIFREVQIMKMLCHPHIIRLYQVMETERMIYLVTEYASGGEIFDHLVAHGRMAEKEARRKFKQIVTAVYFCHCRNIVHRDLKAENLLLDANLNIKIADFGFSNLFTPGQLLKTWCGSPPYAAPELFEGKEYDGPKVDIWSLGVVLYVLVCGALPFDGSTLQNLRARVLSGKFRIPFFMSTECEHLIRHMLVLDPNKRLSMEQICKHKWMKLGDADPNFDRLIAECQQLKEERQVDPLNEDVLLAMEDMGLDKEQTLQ
T1 sequence (P57059 whole entry): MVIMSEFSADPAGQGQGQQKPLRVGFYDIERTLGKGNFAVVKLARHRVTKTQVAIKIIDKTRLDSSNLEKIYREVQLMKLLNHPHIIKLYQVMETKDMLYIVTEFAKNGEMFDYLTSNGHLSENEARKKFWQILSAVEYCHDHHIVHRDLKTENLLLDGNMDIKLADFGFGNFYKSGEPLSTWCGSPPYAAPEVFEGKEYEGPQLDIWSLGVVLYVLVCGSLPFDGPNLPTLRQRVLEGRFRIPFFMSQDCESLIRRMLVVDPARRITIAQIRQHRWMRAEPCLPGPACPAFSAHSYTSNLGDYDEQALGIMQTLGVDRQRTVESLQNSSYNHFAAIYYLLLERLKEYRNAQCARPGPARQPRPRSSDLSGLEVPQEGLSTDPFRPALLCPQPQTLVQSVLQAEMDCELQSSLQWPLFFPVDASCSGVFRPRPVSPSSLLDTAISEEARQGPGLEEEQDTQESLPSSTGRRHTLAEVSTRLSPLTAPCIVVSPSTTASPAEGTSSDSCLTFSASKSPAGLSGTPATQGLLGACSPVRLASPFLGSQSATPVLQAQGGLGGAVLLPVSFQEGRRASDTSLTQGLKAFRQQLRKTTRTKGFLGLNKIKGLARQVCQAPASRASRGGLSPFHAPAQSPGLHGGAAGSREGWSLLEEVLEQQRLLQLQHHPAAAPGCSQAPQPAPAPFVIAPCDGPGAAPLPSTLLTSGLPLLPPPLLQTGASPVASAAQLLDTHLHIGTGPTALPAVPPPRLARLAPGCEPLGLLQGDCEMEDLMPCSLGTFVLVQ

Regarding `COc1cc(-c2cnc3cc(C4CCN(C(=O)OC(C)(C)C)CC4)ccn23)cc(OC)c1C(=O)NCC(F)(F)F` [Cpd 16, tert-butyl 4-[3-[3,5-dimethoxy-4-(2,2,2-trifluoroethylcarbamoyl)phenyl]imidazo[1,2-a]pyridin-7-yl]piperidine-1-carboxylate], the IC50 (usually the concentration that inhibits the measured activity by half) in assay [1] was greater than 500 nM; in assay [2] it was 100 to 500 nM; in assay [3], 10 to 100 nM. In addition, the EC50 (commonly the midpoint of the concentration-response curve) in assay [4] is greater than 5000 nM.

Consider `COc1cc(-c2cnc3cc(C(C)(C)C#N)ccn23)cc(OC)c1C(=O)NCC(F)(F)F` [Cpd 17, 4-[7-(1-cyano-1-methyl-ethyl)imidazo[1,2-a]pyridin-3-yl]-2,6-dimethoxy-N-(2,2,2-trifluoroethyl)benzamide], for which the 50% inhibitory concentration (IC50) in assay [1] was greater than 500 nM; in assay [2], greater than 500 nM; in assay [3], 10 to 100 nM; in assay [5], greater than 500 nM; in assay [6], greater than 500 nM; in assay [7], 10 to 100 nM. Moreover, the EC50 in assay [4] was in the range of 100 to 1000 nM.

Consider `COc1cc(-c2cnc3cc(C(C)(C)C#N)ccn23)cc2c1C(=O)NCC2` [Cpd 20, 2-[3-(8-methoxy-1-oxo-3,4-dihydro-2H-isoquinolin-6-yl)imidazo[1,2-a]pyridin-7-yl]-2-methyl-propanenitrile], for which the IC50 was greater than 500 nM in assay [1]; greater than 500 nM in assay [2]; 10 to 100 nM in assay [3]; greater than 500 nM in assay [5]; greater than 500 nM in assay [6]; 10 to 100 nM in assay [7]. The EC50 in assay [4] lay within 1000 to 5000 nM.

For the compound `COc1cc(-c2cnc3cc(C4CCN(C)CC4)ccn23)cc(OC)c1C(=O)NCC(F)(F)F` [Cpd 22, 2,6-dimethoxy-4-[7-(1-methyl-4-piperidyl)imidazo[1,2-a]pyridin-3-yl]-N-(2,2,2-trifluoroethyl)benzamide], the 50% inhibitory concentration (IC50) in assay [1] was greater than 500 nM; in assay [2], 100 to 500 nM; in assay [3] it was 10 to 100 nM; in assay [5], greater than 500 nM; in assay [6], 100 to 500 nM; in assay [7] it was 10 to 100 nM.

Consider `COc1cc(-c2cnc3cc(C4CCCNC4)ccn23)cc(OC)c1C(=O)NCC(F)(F)F` (stereo not shown) [Cpd 23, 2,6-dimethoxy-4-[7-(3-piperidyl)imidazo[1,2-a]pyridin-3-yl]-N-(2,2,2-trifluoroethyl)benzamide], for which the IC50 in assay [1] is greater than 500 nM; in assay [2] it was 100 to 500 nM; in assay [3] it was 10 to 100 nM; in assay [5], greater than 500 nM; in assay [6] it was 100 to 500 nM; in assay [7], 10 to 100 nM.

In the case of `COc1cc(-c2cnc3cc(C4CCCN(C)C4)ccn23)cc(OC)c1C(=O)NCC(F)(F)F` (stereo not shown) [Cpd 24, 2,6-dimethoxy-4-[7-(1-methyl-3-piperidyl)imidazo[1,2-a]pyridin-3-yl]-N-(2,2,2-trifluoroethyl)benzamide], the IC50 in assay [1] was greater than 500 nM; in assay [2], 100 to 500 nM; in assay [3] it was 10 to 100 nM; in assay [5], greater than 500 nM; in assay [6] it was 100 to 500 nM; in assay [7], 10 to 100 nM. For the same compound, in assay [4], the 50% effective concentration (EC50) lay within 1000 to 5000 nM.

Turning to `COc1cc(-c2cnc3cc(C(C)(C)C#N)ccn23)cc2c1C(=O)N(CC(F)(F)F)CC2` [Cpd 25, 2-[3-[8-methoxy-1-oxo-2-(2,2,2-trifluoroethyl)-3,4-dihydroisoquinolin-6-yl]imidazo[1,2-a]pyridin-7-yl]-2-methyl-propanenitrile], the IC50 in assay [1] is greater than 500 nM; in assay [2], greater than 500 nM; in assay [3] it was 10 to 100 nM; in assay [5], greater than 500 nM; in assay [6], greater than 500 nM; in assay [7], 10 to 100 nM. For the same compound, the EC50 in assay [4] is 1000 to 5000 nM.

In the case of `COc1cc(-c2cnc3cc(C(C)C#N)ccn23)cc(OC(F)F)c1C(=O)NC1CC1` (stereo not shown) [Cpd 26, 4-[7-(1-cyanoethyl)imidazo[1,2-a]pyridin-3-yl]-N-cyclopropyl-2-(difluoromethoxy)-6-methoxy-benzamide], the IC50 in assay [1] was greater than 500 nM; in assay [2] it was 100 to 500 nM; in assay [3], 10 to 100 nM; in assay [5], greater than 500 nM; in assay [6], 100 to 500 nM; in assay [7], 0.01 to 10 nM. Further, the EC50 in assay [4] fell in the range of 100 to 1000 nM.

Regarding `CCNC(=O)c1c(OC)cc(-c2cnc3cc(C(C)(C)C#N)ccn23)cc1OC` [Cpd 30, 4-[7-(1-cyano-1-methyl-ethyl)imidazo[1,2-a]pyridin-3-yl]-N-ethyl-2,6-dimethoxy-benzamide], the IC50 in assay [1] is greater than 500 nM; in assay [2] it was greater than 500 nM; in assay [3], 100 to 500 nM; in assay [5] it was greater than 500 nM; in assay [6], greater than 500 nM; in assay [7], 10 to 100 nM.

As to `COc1cc(-c2cnc3cc(C(C)(C)C#N)ccn23)cc(OC)c1C(=O)NCC#N` [Cpd 32, N-(cyanomethyl)-4-[7-(1-cyano-1-methyl-ethyl)imidazo[1,2-a]pyridin-3-yl]-2,6-dimethoxy-benzamide], the IC50 in assay [1] was greater than 500 nM; in assay [2], greater than 500 nM; in assay [3], 10 to 100 nM; in assay [5], greater than 500 nM; in assay [6], greater than 500 nM; in assay [7], 10 to 100 nM.

Regarding `COc1cc(-c2cnc3cc(C4(C#N)CCC4)ccn23)cc(OC(F)F)c1C(=O)NC1CC1` [Cpd 34, 4-[7-(1-cyanocyclobutyl)imidazo[1,2-a]pyridin-3-yl]-N-cyclopropyl-2-(difluoromethoxy)-6-methoxy-benzamide], the IC50 in assay [1] was greater than 500 nM; in assay [2], greater than 500 nM; in assay [3], 10 to 100 nM; in assay [5], greater than 500 nM; in assay [6], 100 to 500 nM; in assay [7] it was 0.01 to 10 nM. For the same compound, the EC50 in assay [4] lay within 100 to 1000 nM.
